Results taken from patent US20230146455A1, “TREATMENT OF INFLAMMATORY DISEASES WITH PEPTIDES AND PHARMACEUTICAL COMPOSITIONS” (Yuyu Pharma, Inc., priority 2020, published 2023).
Where “and” joins values, the source holds several entries; their conditions need not be identical. Identical values can stand only once. Where a SMILES comes first, the peptide text is derived from it. [ ]: non-standard residue; d: D form. Hyp = O=C(O)[C@@H]1C[C@@H](O)CN1

What was measured:
[1] = tested on: IL-6; assay: Example 9 Luminex, LPS hPBMCs: IL-6; type: cell-based, human; settings: Bead IL-6, PBMC + LPS(5 ug/ml)
Protocol: (§1) Treatment Human PBMCs were pretreated with YY-101, YDE-011 and YDE-043 or reference compound; Xiidra® at various concentration (ranging from 1 nM to 100 uM) for 2 h before stimulation. An equal volume of 0.5% DMSO was used as a vehicle control. Then, the cells were treated with LPS at 5 ug/ml. The supernatants from treated cells were harvested at 24 h and placed in a 96 well for Luminex cytokine & chemokine profiling using a Luminex 200 multiplex assay (Luminex; R&D system, USA).
(§2) The main study arm with triplicate wells per group in a 24-well plate: • 1. Blank • 2. PBMC: 0.5% DMSO • 3. PBMC+LPS (5 ug/ml) • 4. PBMC+YY-101 100 uM • 5. PBMC+YY-101 10 uM • 6. PBMC+YY-101 1 uM • 7. PBMC+YY-101 0.1 uM • 8. PBMC+YY-101 0.01 uM • 9. PBMC+LPS (5 ug/ml)+Xiidra®100 uM • 10. PBMC+LPS (5 ug/ml)+Xiidra® 10 uM • 11. PBMC+LPS (5 ug/ml)+Xiidra® 1 uM • 12. PBMC+LPS (5 ug/ml)+Xiidra®0.1 uM • 13. PBMC+LPS (5 ug/ml)+Xiidra®0.01 uM • 14. PBMC+LPS (5 ug/ml)+Xiidra®0.001 uM • 15. PBMC+LPS (5 ug/ml)+YY-101 100 uM • 16. PBMC+LPS (5 ug/ml)+YY-101 10 uM • 17. PBMC+LPS (5 ug/ml)+YY-101 1 uM • 18. PBMC+LPS (5 ug/ml)+YY-101 0.1 uM • 19. PBMC+LPS (5 ug/ml)+YY-101 0.01 uM • 20. PBMC+LPS (5 ug/ml)+YY-101 0.001 uM • 21. PBMC+LPS (5 ug/ml)+YDE-011 100 uM • 22. PBMC+LPS (5 ug/ml)+YDE-011 10 uM • 23. PBMC+LPS (5 ug/ml)+YDE-011 1 uM • 24. PBMC+LPS (5 ug/ml)+YDE-011 0.1 uM • 25. PBMC+LPS (5 ug/ml)+YDE-011 0.01 uM • 26. PBMC+LPS (5 ug/ml)+YDE-011 0.001 uM • 27. PBMC+LPS (5 ug/ml)+YDE-043 100 uM • 28. PBMC+LPS (5 ug/ml)+YDE-043 10 uM • 29. PBMC+LPS (5 ug/ml)+YDE-043 1 uM • 30. PBMC+LPS (5 ug/ml)+YDE-043 0.1 uM • 31. PBMC+LPS (5 ug/ml)+YDE-043 0.01 uM • 32. PBMC+LPS (5 ug/ml)+YDE-043 0.001 uM
(§3) Multiplex assay was used to measure 30 cytokines and chemokines. The 1:2, 1:10 and 1:200 diluted cell supernatant and serial dilution of the standard were dispensed into a 96 well plate at 50 ul/well. Then, the pre-mixed cocktail of antibody-coated magnetic beads was dispensed at 50 ul/well and incubated at room temperature for 2 h in a horizontal orbital microplate shaker at 800±500 rpm. The beads were washed using a magnetic device to prevent loss. The biotin-antibody was dispensed in 50 ul of each well and incubated at room temperature for 1 h in a shaker at 800±500 rpm. After washing, streptavidin-PE was added at 50 ul/well and incubated at room temperature for 30 min in a shaker under the same conditions. Finally, after washing, wash buffer (100 ul/well) was added to the plate and incubated in a shaker for 2 min. The Luminex™ 200 setting were set according to the manufacturer's protocol. The data was calculated with a standard five-parameter logistic nonlinear regression analysis of the data (xPonent software 4.2, USA). The levels of cytokine/chemokine are normalized to the live cell counts (1×10^5 cells/mL) and presented as concentrations per mL (pg/mL or ng/mL).

[2] = tested on: IL-1 alpha; assay: Example 9 Luminex, LPS hPBMCs: IL-1 alpha; type: cell-based, human; settings: IL-1 alpha, replicates and Mean
Protocol: as §1, §2, §3

[3] = PBMC + LPS(5 ug/ml) + YDE043 0.001 uM
[4] = PBMC + LPS(5 ug/ml) + YDE043 0.001 uM, mean
[5] = PBMC + LPS(5 ug/ml) + YDE043 0.01 uM
[6] = PBMC + LPS(5 ug/ml) + YDE043 0.01 uM, mean
[7] = PBMC + LPS(5 ug/ml) + YDE043 0.1 uM
[8] = PBMC + LPS(5 ug/ml) + YDE043 0.1 uM, mean
[9] = PBMC + LPS(5 ug/ml) + YDE043 1 uM
[10] = PBMC + LPS(5 ug/ml) + YDE043 1 uM, mean
[11] = PBMC + LPS(5 ug/ml) + YDE043 10 uM
[12] = PBMC + LPS(5 ug/ml) + YDE043 10 uM, mean
[13] = PBMC + LPS(5 ug/ml) + YDE043 100 uM
[14] = PBMC + LPS(5 ug/ml) + YDE043 100 uM, mean

## CC(C)C[C@H](NC(=O)[C@H](CCC(N)=O)NC(=O)CNC(=O)[C@@H]1C[C@@H](O)CN1)C(=O)NCC(=O)O [YDE-043] (H-[Hyp]GQLG-OH; N-terminus and C-terminus assumed)
[1]; 0.001 uM, Mean
  Concentration: 7090.4 pg/mL
  MFI: 197.1
  conc/live cell: 1434.2 pg/10^5
[1]; 0.001 uM, single replicates
  Concentration: 6355.1 pg/mL and 7578.4 pg/mL and 7337.9 pg/mL
  MFI: 175.8 and 211.3 and 204.3
  conc/live cell: 1444.3 pg/10^5 and 1263.1 pg/10^5 and 1595.2 pg/10^5
[1]; 0.01 uM, Mean
  Concentration: 6942.0 pg/mL
  MFI: 192.8
  conc/live cell: 1327.4 pg/10^5
[1]; 0.01 uM, single replicates
  Concentration: 7062.6 pg/mL and 7011.0 pg/mL and 6752.4 pg/mL
  MFI: 196.3 and 194.8 and 187.3
  conc/live cell: 1569.5 pg/10^5 and 1062.3 pg/10^5 and 1350.5 pg/10^5
[1]; 0.1 uM, Mean
  Concentration: 6590.8 pg/mL
  MFI: 182.6
  conc/live cell: 1223.6 pg/10^5
[1]; 0.1 uM, single replicates
  Concentration: 6528.0 pg/mL and 6147.3 pg/mL and 7097.1 pg/mL
  MFI: 180.8 and 169.8 and 197.3
  conc/live cell: 1305.6 pg/10^5 and 1097.7 pg/10^5 and 1267.3 pg/10^5
[1]; 1 uM, Mean
  Concentration: 6992.5 pg/mL
  MFI: 194.3
  conc/live cell: 1321.1 pg/10^5
[1]; 1 uM, single replicates
  Concentration: 7131.5 pg/mL and 6164.6 pg/mL and 7681.3 pg/mL
  MFI: 198.3 and 170.3 and 214.3
  conc/live cell: 1229.6 pg/10^5 and 1284.3 pg/10^5 and 1449.3 pg/10^5
[1]; 10 uM, Mean
  Concentration: 9513.9 pg/mL
  MFI: 268.1
  conc/live cell: 1764.4 pg/10^5
[1]; 10 uM, single replicates
  Concentration: 7303.5 pg/mL and 14554.8 pg/mL and 6683.4 pg/mL
  MFI: 203.3 and 415.8 and 185.3
  conc/live cell: 1404.5 pg/10^5 and 2695.3 pg/10^5 and 1193.5 pg/10^5
[1]; 100 uM, Mean
  Concentration: 7286.3 pg/mL
  MFI: 202.8
  conc/live cell: 1157.1 pg/10^5
[1]; 100 uM, single replicates
  Concentration: 7389.4 pg/mL and 7183.1 pg/mL
  MFI: 205.8 and 199.8
  conc/live cell: 1191.8 pg/10^5 and 1122.4 pg/10^5
[2]; [3]
  Concentration: 339.1 pg/mL and 369.6 pg/mL and 357.7 pg/mL
  conc/live cell: 77.1 pg/10^5 and 61.6 pg/10^5 and 77.8 pg/10^5
[2]; [4]
  Concentration: 355.5 pg/mL
  conc/live cell: 72.1 pg/10^5
[2]; [5]
  Concentration: 352.5 pg/mL and 342.5 pg/mL and 370.4 pg/mL
  conc/live cell: 78.3 pg/10^5 and 51.9 pg/10^5 and 74.1 pg/10^5
[2]; [6]
  Concentration: 355.1 pg/mL
  conc/live cell: 68.1 pg/10^5
[2]; [7]
  Concentration: 361.4 pg/mL and 329.0 pg/mL and 382.6 pg/mL
  conc/live cell: 72.3 pg/10^5 and 58.8 pg/10^5 and 68.3 pg/10^5
[2]; [8]
  Concentration: 357.7 pg/mL
  conc/live cell: 66.5 pg/10^5
[2]; [9]
  Concentration: 344.7 pg/mL and 332.4 pg/mL and 338.7 pg/mL
  conc/live cell: 59.4 pg/10^5 and 69.2 pg/10^5 and 63.9 pg/10^5
[2]; [10]
  Concentration: 338.6 pg/mL
  conc/live cell: 64.2 pg/10^5
[2]; [11]
  Concentration: 357.4 pg/mL and 342.1 pg/mL and 351.0 pg/mL
  conc/live cell: 68.7 pg/10^5 and 63.3 pg/10^5 and 62.7 pg/10^5
[2]; [12]
  Concentration: 350.2 pg/mL
  conc/live cell: 64.9 pg/10^5
[2]; [13]
  Concentration: 454.5 pg/mL and 414.4 pg/mL
  conc/live cell: 73.3 pg/10^5 and 64.7 pg/10^5
[2]; [14]
  Concentration: 434.4 pg/mL
  conc/live cell: 69.0 pg/10^5
